From PubChem BioAssay AID1963421 (Molecular Pharmacology Branch, DTP, NCI, 2024)
pIC50: −log10 of the molar value.

System: 519858-162-T-J1-PDC complex spheroid growth, % test/control
Assay: Anticancer human tumor 519858-162-T-J1-PDC patient-derived colon adenocarcinoma cell line growth inhibition [Asc]
Settings: for pIC50: curve of first compound; for viability, T/C: stronger effect = lower value
Experimental: Multicellular complex tumor spheroid response to apoptosis pathway targeting inhibitors Alrizomadlin, Pelcitoclax, and Dasminapant in combination with a variety of drugs and investigational agents in selected tumor cell lines
The MDM2 inhibitor alrizomadlin, the Bcl-2/Bcl-xL inhibitor pelcitoclax, and the IAPs inhibitor dasminapant were evaluated both individually and in combination with standard of care and investigational anticancer small molecules within a complex spheroid model of solid tumors. . Complex spheroids include a stromal component modeled by human endothelial cells (HUVEC) and fibroblasts modeled by human mesenchymal stem cells (MSCs). The concentration ranges selected for each drug and investigational agent were based upon clinically achievable concentrations if the clinical Cmax of the agent was known.
Compounds. The drugs and investigational agents: alrizomadlin (APG-115; NSC831270), pelcitoclax (APG-1252; NSC835773), dasminapant (APG-1387;NSC834197), TAK-243 (NSC785004), copanlisib (NSC809693), olaparib (NSC753686), talazoparib (NSC767125), cobimetinib (NSC 768068), eltanexor (KPT-8602, NSC 794443), abemaciclib (NSC 768073), sotorasib (NSC818433), adagrasib (NSC 831453), MRTX-1133 (NSC 836407), Iadademestat (ORY1001, NSC 806812), and RMC-4630 (NSC839698), were obtained from the NCI Developmental Therapeutics Program Chemical Repository. The FDA-approved anticancer drug set is available from the Developmental Therapeutics Program at https://dtp.cancer.gov/organization/dscb/obtaining/available plates.htm. […] The stock solutions were prepared in dimethyl sulfoxide (DMSO, Sigma-Aldrich, St. Louis, MO, cat. D2650) at 800-fold the tested concentration and stored at -70 degrees C prior to their use. All drugs and investigational agents were tested over a range starting from a high concentration at or near the clinical Cmax and decreasing in half-log increments. If the clinical Cmax for an agent had not been determined, the highest concentration tested was 10 microM.
The patient-derived cancer (PDC) cell lines include five colon adenocarcinomas: 186277-243-T-J2-PDC, 616215-338-R-J1-PDC, 439559-082-T-J2-PDC, 463943-066-T-J2-PDC, and 519858-162-T-J1-PDC; three pancreatic carcinomas: 323965-272-R-J2-PDC, 521955-158-R6-J3-PDC, and 521955-158-R2-J5-PDC; two uterine sarcomas: 327498-152-R-J2-PDC and 993429-296-R-J1-PDC; two rhabdomyosarcomas: 755483-174-R-J1-PDC and 772245-204-R-J1-PDC; two soft tissue sarcomas: 126254-015-R-J1-PDC and 494315-158-R-J1-PDC; two malignant fibrous histiocytomas: 317291-083-R-J1-PDC and 596521-263-R-J1-PDC; two breast carcinomas: 171881-019-R-J1-PDC and 885512-296-R-J2-PDC; and one ovarian carcinoma: 6556581-035-R-J-PDC were obtained from the NCI PDMR, (https://pdmr.cancer.gov). The established cell lines HSSY-2 synovial sarcoma (RRID:CVCL 8719), SYO-1 synovial sarcoma (RRID:CVCL_7146), MPNST malignant peripheral neural sheath tumor were obtained from the Sloan Kettering Institute. The following established cell lines were purchased from the American Type Culture Collection (ATCC, Manassas, VA), Sor the received from the NCI repository:, PANC-1 pancreatic carcinoma (CRL-1469, RRID:CVCL_0480), OVCAR-5 ovarian carcinoma (RRID:CVCL_1628), OVCAR-8 ovarian carcinoma (RRID:CVCL_1629), , MCF-7 breast carcinoma (CRL-12584, RRID:CVCL_0031), MDA-MB-231 breast carcinoma (CRL-12532, RRID:CVCL_0062), NCI-H1876 small cell lung carcinoma (CRL-5902, RRID:CVCL_1503), NCI-H510A small cell lung carcinoma (HTB-184, RRID:CVCL_1565), NCI-H1417 (CRL-5869, RRID:CVCL_1469), and NCI-H196 small cell lung carcinoma (CRL-5823, RRID:CVCL_1509). Dr. Peter Houghton (Greehey Children's Cancer Research Institute, University of Texas Health Science Center, San Antonio, TX) provided Rh-18 rhabdomyosarcoma (RRID:CVCL_1659). Pooled donor human umbilical vein endothelial cells (HUVEC, Lonza, cat. CC-2519) and human mesenchymal stem cells (hMSC, Lonza, cat. PT-2501) were purchased from Lonza (Walkersville, MD).
Cell Culture. […]

[1] = second compound 0.00949 µM, first compound 0.0316 µM
[2] = second compound 0.00949 µM, first compound 0.1 µM
[3] = second compound 0.03 µM, first compound 0.0316 µM
[4] = second compound 0.03 µM, first compound 0.1 µM
[5] = second compound 0.0949 µM, first compound 0.0316 µM
[6] = second compound 0.0949 µM, first compound 0.1 µM
[7] = second compound 0.3 µM, first compound 0.0316 µM
[8] = second compound 0.3 µM, first compound 0.1 µM
[9] = second compound 0.949 µM, first compound 0.0316 µM
[10] = second compound 0.949 µM, first compound 0.1 µM
[11] = second compound 3 µM, first compound 0.0316 µM
[12] = second compound 3 µM, first compound 0.1 µM
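Further: seven day drug exposure begun three days after spheroid seeding.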
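Wherever viability, T/C is given: 100% = DMSO vehicle wells and lower values mean less viable spheroid.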

With Cn1ncnc1[C@H]1c2n[nH]c(=O)c3cc(F)cc(c23)N[C@@H]1c1ccc(F)cc1 + CCN1C(C(=O)NC23CCC(C(=O)O)(CC2)CC3)C(c2cccc(Cl)c2F)C2(C(=O)Nc3cc(Cl)ccc32)C12CCCCC2 the pIC50 (second compound 0.00949 µM) was under 7.00, the pIC50 (second compound 0.03 µM) was under 7.00 and the pIC50 (second compound 0.0949 µM) was under 7.00. For the same compound, the pIC50 (second compound 0.3 µM) was under 7.00, the pIC50 (second compound 0.949 µM) was under 7.00 and the pIC50 (second compound 3 µM) was under 7.00. The viability, T/C (second compound 0.00949 µM, first compound 0.000316 µM) was 87%, the viability, T/C (second compound 0.00949 µM, first compound 0.001 µM) was 86.3% and the viability, T/C (second compound 0.00949 µM, first compound 0.00316 µM) was 103%. It also gave a viability, T/C (second compound 0.00949 µM, first compound 0.01 µM) of 103%, a viability, T/C [1] of 84.8% and a viability, T/C [2] of 98.1%. For the same compound, the viability, T/C (second compound 0.03 µM, first compound 0.000316 µM) was 119%, the viability, T/C (second compound 0.03 µM, first compound 0.001 µM) was 82.3% and the viability, T/C (second compound 0.03 µM, first compound 0.00316 µM) was 72%. It also gave a viability, T/C (second compound 0.03 µM, first compound 0.01 µM) of 91.5%, a viability, T/C [3] of 74.6% and a viability, T/C [4] of 65.5%. It also gave a viability, T/C (second compound 0.0949 µM, first compound 0.000316 µM) of 137%, a viability, T/C (second compound 0.0949 µM, first compound 0.001 µM) of 56.1% and a viability, T/C (second compound 0.0949 µM, first compound 0.00316 µM) of 105%. The viability, T/C (second compound 0.0949 µM, first compound 0.01 µM) was 82.4%, the viability, T/C [5] was 90.6% and the viability, T/C [6] was 87.5%. For the same compound, the viability, T/C (second compound 0.3 µM, first compound 0.000316 µM) was 103%, the viability, T/C (second compound 0.3 µM, first compound 0.001 µM) was 90.7% and the viability, T/C (second compound 0.3 µM, first compound 0.00316 µM) was 93.7%. It also gave a viability, T/C (second compound 0.3 µM, first compound 0.01 µM) of 97.3%, a viability, T/C [7] of 75.4% and a viability, T/C [8] of 91.1%. For the same compound, the viability, T/C (second compound 0.949 µM, first compound 0.000316 µM) was 75.2%, the viability, T/C (second compound 0.949 µM, first compound 0.001 µM) was 92.3% and the viability, T/C (second compound 0.949 µM, first compound 0.00316 µM) was 108%. For the same compound, the viability, T/C (second compound 0.949 µM, first compound 0.01 µM) was 72.3%, the viability, T/C [9] was 91.9% and the viability, T/C [10] was 95.8%. The viability, T/C (second compound 3 µM, first compound 0.000316 µM) was 70.2%, the viability, T/C (second compound 3 µM, first compound 0.001 µM) was 68.8% and the viability, T/C (second compound 3 µM, first compound 0.00316 µM) was 68.3%. It also gave a viability, T/C (second compound 3 µM, first compound 0.01 µM) of 74.2%, a viability, T/C [11] of 107% and a viability, T/C [12] of 85.1%.

O=C(c1cc(Cc2n[nH]c(=O)c3ccccc23)ccc1F)N1CCN(C(=O)C2CC2)CC1 + CCN1C(C(=O)NC23CCC(C(=O)O)(CC2)CC3)C(c2cccc(Cl)c2F)C2(C(=O)Nc3cc(Cl)ccc32)C12CCCCC2 was tested, and the pIC50 (second compound 0.00949 µM) was under 5.00, the pIC50 (second compound 0.03 µM) was under 5.00 and the pIC50 (second compound 0.0949 µM) was under 5.00. The pIC50 (second compound 0.3 µM) was under 5.00, the pIC50 (second compound 0.949 µM) was under 5.00 and the pIC50 (second compound 3 µM) was under 5.00. For the same compound, the viability, T/C [1] was 106%, the viability, T/C [2] was 81.9% and the viability, T/C (second compound 0.00949 µM, first compound 0.316 µM) was 101%. The viability, T/C (second compound 0.00949 µM, first compound 1 µM) was 81%, the viability, T/C (second compound 0.00949 µM, first compound 3.16 µM) was 90.8% and the viability, T/C (second compound 0.00949 µM, first compound 10 µM) was 79.4%. It also gave a viability, T/C [3] of 130%, a viability, T/C [4] of 82.9% and a viability, T/C (second compound 0.03 µM, first compound 0.316 µM) of 127%. For the same compound, the viability, T/C (second compound 0.03 µM, first compound 1 µM) was 93.2%, the viability, T/C (second compound 0.03 µM, first compound 3.16 µM) was 75.2% and the viability, T/C (second compound 0.03 µM, first compound 10 µM) was 74.9%. It also gave a viability, T/C [5] of 117%, a viability, T/C [6] of 103% and a viability, T/C (second compound 0.0949 µM, first compound 0.316 µM) of 101%. The viability, T/C (second compound 0.0949 µM, first compound 1 µM) was 77%, the viability, T/C (second compound 0.0949 µM, first compound 3.16 µM) was 92.7% and the viability, T/C (second compound 0.0949 µM, first compound 10 µM) was 100%. It also gave a viability, T/C [7] of 163%, a viability, T/C [8] of 94.9% and a viability, T/C (second compound 0.3 µM, first compound 0.316 µM) of 99.2%. The viability, T/C (second compound 0.3 µM, first compound 1 µM) was 83.3%, the viability, T/C (second compound 0.3 µM, first compound 3.16 µM) was 85.2% and the viability, T/C (second compound 0.3 µM, first compound 10 µM) was 72.2%. The viability, T/C [9] was 71.9%, the viability, T/C [10] was 70.6% and the viability, T/C (second compound 0.949 µM, first compound 0.316 µM) was 76.5%. For the same compound, the viability, T/C (second compound 0.949 µM, first compound 1 µM) was 86.5%, the viability, T/C (second compound 0.949 µM, first compound 3.16 µM) was 85.2% and the viability, T/C (second compound 0.949 µM, first compound 10 µM) was 94%. The viability, T/C [11] was 63.8%, the viability, T/C [12] was 89.3% and the viability, T/C (second compound 3 µM, first compound 0.316 µM) was 94.7%. The viability, T/C (second compound 3 µM, first compound 1 µM) was 73.4%, the viability, T/C (second compound 3 µM, first compound 3.16 µM) was 100% and the viability, T/C (second compound 3 µM, first compound 10 µM) was 76%.
